# Data reported in patent publication US4504464A, “2,3-Dialkoxypropyl glyceryl ether and its preparation process as well as cosmetic composition containing same” (Kao Soap Co., Ltd., priority 1981, dated 1985).
# Key:
# [1] = Viscosity (27° C.); assay type: physicochemical
# Procedure: (§1) Physical and chemical properties of the compound prepared in Example 1, which compound relates to the present invention, and an example of its application for cosmetic compositions will be described below.
# (§2) Viscosity Water-solubility (25° )
# [2] = Water-solubility (25° C.); assay type: physicochemical; conditions: for Water-solubility (25° C.) 10%: 10% content of the diglycerin dialkyl ether; for Water-solubility (25° C.) 50%: 50% content of the diglycerin dialkyl ether
# Procedure: as §1, §2
# * Content (%) of the diglycerin dialkyl ether according to this invention
# These figures will have the same significance in subsequent examples.
Compound,Viscosity (27° C.) [1] [cp],Water-solubility (25° C.) 10% [2],Water-solubility (25° C.) 50% [2]
2-butoxy-3-isostearoxypropyl glyceryl ether [Example 4],240,–,–
2-methoxy-3-isostearoxypropyl glyceryl ether [Example 3],382,–,–
2-octoxy-3-isostearoxypropyl glyceryl ether [Example 5],280,Undissolved,Undissolved
"CCCCCCCCOCC(COCC(O)CO)OC (stereo not shown) [Example 1, 2-methoxy-3-octoxypropyl glyceryl ether]",423,Dissolved,Dissolved
"CCCCCCCCCCCCOCC(COCC(O)CO)OC (stereo not shown) [Example 2, 2-methoxy-3-dodecyloxypropyl glyceryl ether]",504,Dissolved,–
